From US20260071117A1, “FUNABLE FLUORESCENT COMPOUNDS AND USES THEREOF” (Arizona Board of Regents on Behalf of the University of …, priority 2021, published 2026)

Experiment: Absorbance and fluorescence measurements (excitation maximum, emission maximum, quantum yield vs coumarin 151)
Type: physicochemical
Design: key to Quantum Yield: fraction relative to coumarin 151 in ethanol standard
Details: for λex: absorbance/excitation maximum; for Quantum Yield: coumarin 151 in ethanol as standard; for λem: emission maximum
Source text: All reagents and solvents were acquired from commercially available suppliers and used without further purification. Methanol(dried on molecular sieves-Acroseal) was obtained from Acros. […] 1H and 13C NMR spectra were obtained on a Bruker NMR spectrometer at 500/400 and 125/100 MHz respectively. The data is reported as follows: chemical shift in ppm (δ), multiplicity (s=singlet, d=doublet, dd=doublet of doublets, t=triplet, dt=doublet of triplets, td=triplet of doublets, q=quartet, p=pentet, m=multiplet). Coupling constants are reported in Hertz (Hz) and were automatically generated using known NMR analyzer software (MestReNova), these were then subsequently curated. High-resolution mass spectra were obtained using the positive ESI method for all the compounds, obtained in an Ion Cyclotron Resonance (ICR) spectrometer. Absorbance spectra were obtained using an Agilent 8453 UV-visible spectroscopy system. Fluorescence was measured on a Varian (Agilent) Cary Eclipse Fluorimeter. Quantum yield measurements were calculated and reported using coumarin 151 in ethanol as a standard.^1 Fluorescence scans were obtained using a 2.5 mm slit width unless otherwise noted.
The fluorescence was also measured in different solvents to examine the solvent effects.

[1] = 2.5 mm slit width, measurements run with methanol

| λex (measurements run with methanol) | Quantum Yield [1] | λem [1] | fluorescence (observation in words) | Quantum Yield (10 mm slit) | λem (10 mm slit width) | Compound |
| --- | --- | --- | --- | --- | --- | --- |
| 330 nm |  |  |  |  |  | Nc1c(-c2ccccc2[N+](=O)[O-])nc2ccccn12 [Compound 10i, 2-(2-nitrophenyl)imidazo[1,2-a]pyridin-3-amine] |
| 341 nm | 0.07 | 479 nm |  |  |  | COc1ccc(-c2nc3ccc(N4CCCCC4)cn3c2N)cc1 [Compound 10as, 2-(4-methoxyphenyl)-6-(piperidin-1-yl)imidazo[1,2-a]pyridin-3-amine] |
| 499 nm | 0.24 | 639 nm |  |  |  | COc1ccc(/C=C/c2nc3nc(-c4ccc(OC)cc4)c(NCc4ccccc4)n3nc2C)cc1 [Compound 76, (E)-N-benzyl-6-(4-methoxyphenyl)-3-(4-methoxystyryl)-2-methylimidazo[1,2-b][1,2,4]triazin-7-amine] |
| 350 nm | 0.09 | 510 nm |  |  |  | COc1ccc(-c2nc3ccc(-c4ccccc4)cn3c2N)cc1 [Compound 10ar, 2-(4-methoxyphenyl)-6-phenylimidazo[1,2-a]pyridin-3-amine] |
| 435 nm | 0.06 | 581 nm |  |  |  | CCN(CC)c1ccc(-c2nc3cc(-c4ccncc4)ccn3c2N)cc1 [Compound 10ay, 2-(4-(diethylamino)phenyl)-7-(pyridin-4-yl)imidazo[1,2-a]pyridin-3-amine] |
| 390 nm |  |  |  |  |  | Nc1c(-c2ccc([N+](=O)[O-])cc2)nc2ccc(N3CCCCC3)cn12 [Compound 10aw, 2-(4-nitrophenyl)-6-(piperidin-1-yl)imidazo[1,2-a]pyridin-3-amine] |
| 349 nm | 0.20 | 478 nm |  |  |  | Cn1cccc1-c1nc2ccccn2c1N [Compound 10o, 2-(1-methyl-1H-pyrrol-2-yl)imidazo[1,2-a]pyridin-3-amine] |
| 550 nm |  |  | fluorescence intensity is low | 0.09 | 720 nm | CCN(CC)c1ccc(-c2nc3cc([N+](=O)[O-])ccn3c2N)cc1 [Compound 10ba, 2-(4-(diethylamino)phenyl)-7-nitroimidazo[1,2-a]pyridin-3-amine] |
| 444 nm | 0.06 | 572 nm |  |  |  | CCN(CC)c1ccc(-c2nc3cccnn3c2N)cc1 [Compound 10ag, 2-(4-(diethylamino)phenyl)imidazo[1,2-b]pyridazin-3-amine] |
| 486 nm | 0.27 | 643 nm |  |  |  | COc1ccc(/C=C/c2nc3nc(-c4ccc(OC)cc4)c(NC(C)(C)C)n3nc2C)cc1 [Compound 44, (E)-N-(tert-butyl)-6-(4-methoxyphenyl)-3-(4-methoxystyryl)-2-methylimidazo[1,2-b][1,2,4]triazin-7-amine] |
| 392 nm | 0.23 | 545 nm |  |  |  | COc1cc(-c2nc3cc(-c4ccncc4)ccn3c2N)cc(OC)c1OC [Compound 10ax, 7-(pyridin-4-yl)-2-(3,4,5-trimethoxyphenyl)imidazo[1,2-a]pyridin-3-amine] |
| 563 nm | 0.19 | 609 nm |  |  |  | COc1ccc(/C=C/c2nc3nc(-c4ccc(OC)cc4)c(/N=C/c4ccc(OC)cc4)n3nc2C)cc1 [Compound 60, (E)-1-(4-methoxyphenyl)-N-(6-(4-methoxyphenyl)-3-((E)-4-methoxystyryl)-2-methylimidazo[1,2-b][1,2,4]triazin-7-yl)methanimine] |
| 343 nm | 0.36 | 474 nm |  |  |  | 2-(3,4,5-trimethoxyphenyl)imidazo[1,2-a]pyridin-3-amine [Compound 10a] |
| 295 nm | 0.07 | 488 nm |  |  |  | COc1cc(-c2nc3c(nc4cccnn43)c3cc(OC)c(OC)c(OC)c23)cc(OC)c1OC [Compound 16f, 2,3,4-trimethoxy-5-(3,4,5-trimethoxyphenyl)pyridazino[6′,1′:2,3]imidazo[4,5-c]isoquinoline] |
| 498 nm | 0.18 | 608 nm |  |  |  | (E)-5-(3,5-dimethoxyphenyl)-10-(3,5-dimethoxystyryl)-2,4-dimethoxy-9-methyl-[1,2,4]triazino[3′, 2′: 2,3]imidazo[4,5-c]isoquinolines [Compound 79] |
| 394 nm | 0.40 | 510 nm |  |  |  | COC(=O)c1ccn2c(N)c(-c3ccc(OC)cc3)nc2c1 [Compound 10ak, methyl 3-amino-2-(4-methoxyphenyl)imidazo[1,2-a]pyridine-7-carboxylate] |

The next lines start with the compound.

| Compound | λex (measurements run with methanol) | Quantum Yield [1] | λem [1] | fluorescence (observation in words) | Quantum Yield (10 mm slit) | λem (10 mm slit width) |
| --- | --- | --- | --- | --- | --- | --- |
| COc1cc(/C=C/c2nc3nc(-c4cc(OC)c(OC)c(OC)c4)c(NC(C)(C)C)n3nc2C)cc(OC)c1OC [Compound 48, (E)-N-(tert-butyl)-2-methyl-6-(3,4,5-trimethoxyphenyl)-3-(3,4,5-trimethoxystyryl)imidazo[1,2-b][1,2,4]triazin-7-amine] | 506 nm | 0.28 | 633 nm |  |  |  |
| Nc1c(-c2cccc([N+](=O)[O-])c2)nc2ccccn12 [Compound 10j, 2-(3-nitrophenyl)imidazo[1,2-a]pyridin-3-amine] | 350 nm |  |  |  |  |  |
| COC(=O)c1cccc2nc(-c3cc(OC)cc(OC)c3)c(N)n12 [Compound 10x, methyl 3-amino-2-(3,5-dimethoxyphenyl)imidazo[1,2-a]pyridine-5-carboxylate] | 400 nm |  |  | quenched fluorescence altogether |  |  |
| Nc1c(-c2ccc([N+](=O)[O-])cc2)nc2ccccn12 [Compound 10k, 2-(4-nitrophenyl)imidazo[1,2-a]pyridin-3-amine] | 304 nm |  |  | did not show any observable fluorescence intensity |  |  |
| COC(=O)c1ccn2c(N)c(-c3ccc4ccccc4c3)nc2c1 [Compound 10ai, methyl 3-amino-2-(naphthalen-2-yl)imidazo[1,2-a]pyridine-7-carboxylate] | 434 nm | 0.47 | 512 nm |  |  |  |
| COc1cc(/C=C/c2nc3nc(-c4cc(OC)cc(OC)c4)c(NC(C)(C)C)n3nc2C)cc(OC)c1 [Compound 46, (E)-N-(tert-butyl)-6-(3,5-dimethoxyphenyl)-3-(3,5-dimethoxystyryl)-2-methylimidazo[1,2-b][1,2,4]triazin-7-amine] | 461 nm | 0.19 | 638 nm |  |  |  |
| CCN(CC)c1ccc(-c2nc3ccccn3c2N)cc1 [Compound 10q, 2-(4-(diethylamino)phenyl)imidazo[1,2-a]pyridin-3-amine] | 341 nm | 0.12 | 486 nm |  |  |  |
| Nc1c(-c2cccc(Oc3ccccc3)c2)nc2ccccn12 [Compound 10n, 2-(3-phenoxyphenyl)imidazo[1,2-a]pyridin-3-amine] | 339 nm | 0.40 | 474 nm |  |  |  |
| Cc1nn2c(NC(C)(C)C)c(-c3ccc([N+](=O)[O-])cc3)nc2nc1/C=C/c1ccc([N+](=O)[O-])cc1 [Compound 45, (E)-N-(tert-butyl)-2-methyl-6-(4-nitrophenyl)-3-(4-nitrostyryl)imidazo[1,2-b][1,2,4]triazin-7-amine] | 505 nm | 0.11 | 655 nm |  |  |  |
| c1ccc2cc(-c3nc4c(nc5ccccn54)c4ccc5ccccc5c34)ccc2c1 [Compound 16e, 7-(naphthalen-2-yl)benzo[h]pyrido[2′,1′:2,3]imidazo[4,5-c]isoquinoline] | 389 nm | 0.01 | 442 nm |  |  |  |
| COc1cc(-c2nc3cccnn3c2N)cc(OC)c1OC [Compound 10ad, 2-(3,4,5-trimethoxyphenyl)imidazo[1,2-b]pyridazin-3-amine] | 429 nm | 0.03 | 541 nm |  |  |  |
| COc1cc(OC)cc(-c2nc3cnccn3c2N)c1 [Compound 10s, 2-(3,5-dimethoxyphenyl)imidazo[1,2-a]pyrazin-3-amine] | 382 nm | 0.35 | 477 nm |  |  |  |
| COc1cccc(-c2nc3ccccn3c2N)c1OC [Compound 10b, 2-(2,3-dimethoxyphenyl)imidazo[1,2-a]pyridin-3-amine] | 341 nm | 0.40 | 471 nm |  |  |  |
| Cc1nn2c(/N=C/c3ccc4ccccc4c3)c(-c3ccc4ccccc4c3)nc2nc1/C=C/c1ccc2ccccc2c1 [Compound 59, (E)-N-(2-methyl-6-(naphthalen-2-yl)-3-((E)-2-(naphthalen-2-yl)vinyl)imidazo[1,2-b][1,2,4]triazin-7-yl)-1-(naphthalen-2-yl)methanimine] | 526 nm | 0.04 | 601 nm |  |  |  |
| Nc1c(-c2ccc3ccccc3c2)nc2cccnn12 [Compound 10ab, 2-(naphthalen-2-yl)imidazo[1,2-b]pyridazin-3-amine] | 438 nm | 0.04 | 543 nm |  |  |  |
| COC(=O)c1ccn2c(c1)nc1c3cc(OC)cc(OC)c3c(/C=C/c3ccccc3)nc12 [Compound 18c, methyl (E)-2,4-dimethoxy-5-styrylpyrido[2′,1′:2,3]imidazo[4,5-c]isoquinoline-10-carboxylate] | 325 nm | 0.19 | 510 nm |  |  |  |
